Assay results: the supplement of paper PMC8149375

How the values were obtained:
Details in all cases: treatment: drug alone; 5 days
A498 [1] = test: GI50, drug alone; higher = less potent
Method: (§1)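 Primary HTS: 8 RCC cell lines treated with 8 doses (up to 10 uM) of each library drug alone for 5 days; viability read by CellTiter-Glo and normalised to DMSO. GI50 was fitted with XLfit (4-parameter), AUC is the area under the dose-response curve, and minimum viability is the lowest fraction of DMSO viability across doses.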

786-O [2] = test: GI50, drug alone; higher = less potent
Method: as §1

TK-10 [3] = test: GI50, drug alone; higher = less potent
Method: as §1

UO-31 [4] = test: GI50, drug alone; higher = less potent
Method: as §1

ACHN [5] = test: GI50, drug alone; higher = less potent
Method: as §1

769-P [6] = test: GI50, drug alone; higher = less potent
Method: as §1

CAKI-1 [7] = test: GI50, drug alone; higher = less potent
Method: as §1

SN12C [8] = test: GI50, drug alone; higher = less potent
Method: as §1

A498 [9] = test: AUC of dose-response viability curve, drug alone (arbitrary (AUC of normalised viability)); higher = less growth inhibition
Method: as §1

786-O [10] = test: as above
Method: as §1

TK-10 [11] = test: as above
Method: as §1

UO-31 [12] = test: as above
Method: as §1

ACHN [13] = test: as above
Method: as §1

769-P [14] = test: as above
Method: as §1

CAKI-1 [15] = test: as above
Method: as §1

SN12C [16] = test: as above
Method: as §1

A498 [17] = test: minimum viability across doses, drug alone, relative to DMSO (fraction); higher = less growth inhibition
Method: as §1

786-O [18] = test: as above
Method: as §1

TK-10 [19] = test: as above
Method: as §1

UO-31 [20] = test: as above
Method: as §1

ACHN [21] = test: as above
Method: as §1

769-P [22] = test: as above
Method: as §1

CAKI-1 [23] = test: as above
Method: as §1

SN12C [24] = test: as above
Method: as §1

| Structure (SMILES) | GI50, drug alone (A498 [1]) | GI50, drug alone (786-O [2]) | GI50, drug alone (TK-10 [3]) | GI50, drug alone (UO-31 [4]) | GI50, drug alone (ACHN [5]) | GI50, drug alone (769-P [6]) | GI50, drug alone (CAKI-1 [7]) | GI50, drug alone (SN12C [8]) | AUC of dose-response viability curve (A498 [9]) | AUC of dose-response viability curve (786-O [10]) | AUC of dose-response viability curve (TK-10 [11]) | AUC of dose-response viability curve (UO-31 [12]) | AUC of dose-response viability curve (ACHN [13]) | AUC of dose-response viability curve (769-P [14]) | AUC of dose-response viability curve (CAKI-1 [15]) | AUC of dose-response viability curve (SN12C [16]) | minimum viability across doses (A498 [17]) | minimum viability across doses (786-O [18]) | minimum viability across doses (TK-10 [19]) | minimum viability across doses (UO-31 [20]) | minimum viability across doses (ACHN [21]) | minimum viability across doses (769-P [22]) | minimum viability across doses (CAKI-1 [23]) | minimum viability across doses (SN12C [24]) |
| --- | --- | --- | --- | --- | --- | --- | --- | --- | --- | --- | --- | --- | --- | --- | --- | --- | --- | --- | --- | --- | --- | --- | --- | --- |
| O=C1NC(=O)[C@@H](c2cn3c4c(cccc24)CCC3)[C@@H]1c1c[nH]c2ccccc12 [ARQ 197 (Tivantinib)] | 1.15 µM | 0.424 µM | 2.88 µM | 1.31 µM | 1.54 µM | 1.55 µM | 1.06 µM | 2.17 µM | 3 | 2.06 | 2.77 | 3.27 | 2.63 | 2.55 | 2.54 | 2.86 | 0.121 | 0.00526 | 0.326 | 0.0233 | 0.144 | 0.0795 | 0.201 | 0.251 |
| COc1cc2nccc(Oc3ccc(NC(=O)Nc4cc(C)on4)c(Cl)c3)c2cc1OC [Tivozanib (AV-951)] | > 10 µM | > 10 µM | > 10 µM | 0.301 µM | 6.95 µM | > 10 µM | 2.02 µM | 9.39 µM | 4.88 | 3.89 | 3.14 | 2.98 | 3.21 | 3.47 | 2.12 | 3.26 | 1.12 | 0.904 | 0.641 | 0.00837 | 0.352 | 0.849 | 0.0726 | 0.417 |
| Cc1cc(C(=O)NOCCO)c(Nc2ccc(I)cc2F)n(C)c1=O [AZD8330] | > 10 µM | 0.0573 µM | 0.123 µM | > 10 µM | 0.14 µM | 0.385 µM | 0.134 µM | 0.865 µM | 3.63 | 1.78 | 1.74 | 3.95 | 1.69 | 2.04 | 1.73 | 2.36 | 0.789 | 0.31 | 0.317 | 0.527 | 0.299 | 0.281 | 0.209 | 0.386 |
| C=CC(=O)Nc1ccc2ncnc(Nc3ccc(OCc4cccc(F)c4)c(Cl)c3)c2c1.Cc1ccc(S(=O)(=O)O)cc1 [AST-1306] | > 10 µM | 2.38 µM | 0.884 µM | > 10 µM | 3.11 µM | 1.72 µM | 3.35 µM | 4.97 µM | 3.99 | 2.59 | 2.33 | 4.13 | 2.9 | 2.61 | 2.76 | 3.03 | 0.922 | 0.0947 | 0.109 | 1.05 | 0.315 | 0.048 | 0.174 | 0.188 |
| CCn1nnc2c(N3CCOCC3)nc(-c3ccc(NC(=O)Nc4ccc(C(=O)N5CCN(C)CC5)cc4)cc3)nc21 [PKI-402] | 0.165 µM | 0.117 µM | 0.179 µM | 0.162 µM | 0.224 µM | 1.14 µM | 0.241 µM | 0.0991 µM | 2.25 | 1.66 | 1.71 | 1.99 | 1.89 | 2.51 | 1.91 | 1.66 | 0.156 | 0.00561 | 0.0487 | 0.0165 | 0.0633 | 0.102 | 0.0473 | 0.118 |
| Oc1ccc(-c2nc(-c3ccc(F)cc3)c(-c3ccncc3)[nH]2)cc1 | > 10 µM | > 10 µM | > 10 µM | > 10 µM | 9.97 µM | > 10 µM | > 10 µM | > 10 µM | 4.09 | 3.04 | 2.88 | 4.47 | 2.91 | 3.41 | 3.25 | 3.4 | 1.02 | 0.65 | 0.659 | 0.308 | 0.473 | 0.904 | 0.637 | 0.936 |
| COc1cc2nccc(Oc3ccc(NC(=O)Nc4ccc(F)cc4F)c(F)c3)c2cc1OC [Ki8751] | > 10 µM | > 10 µM | > 10 µM | 0.445 µM | > 10 µM | > 10 µM | 7.43 µM | > 10 µM | 5.49 | 3.06 | 3.08 | 2.83 | 3.13 | 3.31 | 3.34 | 3.45 | 1 | 0.673 | 0.72 | 0.00557 | 0.574 | 0.559 | 0.403 | 0.877 |
| NC1(Cc2ccc(Cl)cc2)CCN(c2ncnc3[nH]ccc23)CC1 | > 10 µM | 0.631 µM | 4.56 µM | 3.8 µM | 5.91 µM | 8.76 µM | > 10 µM | 7.35 µM | 4.01 | 2.17 | 3.01 | 4.18 | 3.38 | 3.31 | 3.21 | 3.08 | 0.905 | 0.0631 | 0.284 | 0.00579 | 0.287 | 0.432 | 0.348 | 0.431 |
| Cc1cc(CN2CCN(c3c(Br)cnc4[nH]c(-c5ccc(N6CCN(C)CC6)cc5)nc34)CC2)no1 | 3.35 µM | 0.451 µM | 2.84 µM | 8.57 µM | 0.732 µM | 0.858 µM | 0.885 µM | 2.42 µM | 3.57 | 2.01 | 2.61 | 4.13 | 2.36 | 2.44 | 2.6 | 2.74 | 0.0157 | 0.00301 | 0.177 | 0.0211 | 0.00704 | 0.0185 | 0.00778 | 0.0135 |
| FC(F)(F)c1ccc(/C=C/c2nc(COc3ccc(CCCCn4ccnn4)cc3)co2)cc1 [Mubritinib (TAK 165)] | 0.154 µM | 0.0329 µM | 0.147 µM | 0.058 µM | 0.116 µM | > 10 µM | > 10 µM | 0.0429 µM | 2.12 | 1.04 | 1.78 | 1.39 | 1.78 | 2.86 | 2.96 | 1.14 | 0.151 | 0.0382 | 0.21 | 0.033 | 0.125 | 0.586 | 0.765 | 0.0401 |
